# “Also recorded” adds a separate entry of the source.
# Tests used:
# Hb9::GFP MNs = experiment: Number of synapses per MN (synapsin/PSD-95 co-localization, automated imager); format: cell-based, mouse
# Description: (§1) To examine whether MNs kept alive by AKIs maintain morphological integrity we carried out a series of analyses on surviving MNs in the absence of trophic factors. […] We also used an automated imager to analyze the number of synapses per MN by counting co-localized regions positive for the presynaptic marker synapsin and the postsynaptic marker PSD-95.
# SOD1^G93A/Hb9::GFP MNs = experiment: as above; format: cell-based, mouse
# Description: as §1
# [1] = system: human iPSC derived MNs (healthy control, SOD1, TDP-43, C90RF72); experiment: Human iPSC derived MN survival; format: cell-based
# Description: (§2) We produced MNs from human iPSCs lines including a healthy control, two ALS patients expressing confirmed mutations in SOD1 (Boulting et al., 2011), two with mutations in TDP-43 and one in C90RF72. We treated these cultures with AraC to minimize the number of proliferating progenitors. […] We also examined the effect of SOD 1^G93A astrocytes co-culture on iPSC derived MNs. We found no toxic effect on survival in any of the patient iPSC derived MNs, but we did observe decreased MN survival in the control iPSC derived MNs. […] We also looked at the effect of AKIs on morphology and synapse formation. […] In addition, by immunoblot we observed that ZM447439 enhanced synaptic protein, synaptophysin, expression in both the presence and absence of trophic factors.
# iPSCs derived MNs = experiment: iPSC derived MNs co-cultured with wild type or SOD1^G93A astrocytes; format: cell-based, human; details: iPSCs derived MNs cultured on wild type or SOD1^G93A astrocytes
# Description: as §2
# [2] = system: wild-type (Hb9::GFP) mouse ESC derived MNs; experiment: MN survival after trophic factor withdrawal, mixed culture; format: cell-based; details: in presence of neurotrophic factors; day 7, 14 & 21
# [3] = system: HuES-3/Hb9::GFP human ESC derived MNs; experiment: Human ESC derived MN survival after trophic factor withdrawal; format: cell-based; details: trophic factors withdrawn
# Description: We generated MNs from a human ESC line expressing an HB9::GFP transgene [HuES-3/Hb9::GFP (Di Giorgio et al., 2008)]. Human ESC derived MN cultures were pre-treated with AraC to eliminate progenitor cells. We induced MN death by again withdrawing trophic factors. […] We also investigated the toxic effect of SOD1^G93A astrocytes on human ESC derived MN survival. We found significant death of human MNs cultured on mutant astrocytes.
# [4] = system: SOD1^G93A (SOD1^G93A/Hb9::GFP) mouse ESC derived MNs; experiment: MN survival after trophic factor withdrawal, mixed culture; format: cell-based
# Description: In the present study, we have screened highly specific small molecule kinase inhibitors to identify those which could promote MN survival. For the screen, we generated MNs from wild-type (Hb9::GFP) and SOD1^G93A (SOD1^G93A/Hb9::GFP) mouse ESCs using published protocols (Di Giorgio et al., 2007). We withdrew trophic factors as a standard method to induce MN death. Cell plating density as well as timing for initiation and duration of trophic factor withdrawal were used exactly as published to achieve ˜80% MN death in 3 days (FIG. 1A) (Yang et al., 2013). […] We continued to work with this compound class as it reproducibly promoted survival of both MNs types and the effect was robust. We further reasoned that since this compound class promoted survival of both MN types, the probability of its working in other contexts such as on human MNs and in the ALS mouse model was maximum.
# High expression of Aurora kinases is associated with various types of cancer (Sen et al., 1997; Reichardt et al., 2003; Tchatchou et al., 2007) and there are many AKIs including VX-680 and ZM447439 that are in clinical trials for anti-cancer drug development.
# Trophic factors were removed and ZM447439 was added to the cultures as previously and MN survival was analyzed on day 7, 14 & 21.
# [5] = system: FACS purified Hb9::GFP MNs; experiment: MN survival after trophic factor withdrawal, FACS purified MN culture; format: cell-based, mouse; details: FACS purified MN cultures, trophic factors withdrawn, FIG. 1C
# Description: ESC-derived MN culture achieves ˜30%-50% MN differentiation efficiency and is therefore highly heterogeneous. To examine whether AKIs specifically act in a cell-autonomous or non-cell-autonomous manner, we established a highly enriched MN culture through FACS purification based on Hb9::GFP reporter expression. […] Next, we asked whether AKIs exert their survival promoting effect only cell-autonomously or whether they also function non-cell-autonomously to rescue MN death. To address this question we produced astrocyte conditioned medium (ACM) by incubating primary murine astrocytes with AKIs (VX-680 and ZM447439). The ACM was then dialyzed using a dialyzer with pore size appropriate for eliminating residual AKIs.
structure (smiles),measurement,setting,value
"COc1cc2c(Nc3ccc(NC(=O)c4ccccc4)cc3)ncnc2cc1OCCCN1CCOCC1 [ZM447439, N-[4-[[6-Methoxy-7-[3-(4-morpholinyl)propoxy]-4-quinazolinyl]amino]phenyl]benzamide]",number of synapses per MN,"Hb9::GFP MNs; absence of trophic factors, Hb9::GFP MNs",preserved the number of synapses
same,number of synapses per MN,Hb9::GFP MNs; neurotrophin containing medium,increased the number of synapses per MN
same,number of synapses per MN,"SOD1^G93A/Hb9::GFP MNs; absence of trophic factors, SOD1^G93A/Hb9::GFP MNs",preserved the number of synapses
same,number of synapses per MN,SOD1^G93A/Hb9::GFP MNs; neurotrophin containing medium,increased the number of synapses per MN
same,MN survival,"[1]; all human iPSC derived MN cultures, AraC treated",substantially increase MN survival
same,"MN survival, comparison of VX-680 and ZM447439",[1]; human iPSC derived MN cultures,more effective and potent in rescuing human MN death
same,MN survival in astrocyte co-culture,iPSCs derived MNs,improved survival
same,basal MN death,[2],prevented
same,"human MN survival, comparison of VX-680 and ZM447439",[3]; FIG. 7A,more effective and potent in preventing MN death
same,human MN survival,[3]; AraC pre-treated cultures,rescued human MN death
same,basal MN death,"[4]; in presence of neurotrophic factors, day 7, 14 & 21",prevented
same,survival of MNs (number of surviving MNs),"[4]; trophic factor withdrawal, 3 days, SOD1^G93A/Hb9::GFP MNs",consistently increased the survival of MNs; also recorded: most potent and robust at increasing survival
same,long term MN survival,"[4]; trophic factors removed, day 7, 14 & 21, SOD1^G93A/Hb9::GFP MNs",increased survival
same,MN survival,[5],rescued MN survival in a dose dependent fashion

# From patent publication US20160287602A1, “METHODS FOR PROMOTING MOTOR NEURON SURVIVAL” (PRESIDENT AND FELLOWS OF HARVARD COLLEGE, priority 2013, published 2016)
